Here are results for 13 molecules from ChEMBL document CHEMBL1201862, “PubChem BioAssay data set” (2004).

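The compound was tested at five concentrations on cells cultured in 96-well plates, with a 48-hour exposure period. GI50: concentration for 50% inhibition of growth.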 Activity calls are given as the source filed them. No stated cut-off is given here; in the data, active = GI50 up to about 1.1 µM and inactive = higher.

For orientation: GI50 means the concentration giving 50% growth inhibition.

Some test systems named below: SF-539; OVCAR-8; LOX IMVI; M14; SK-MEL-2; CAKI-1; Malme-3M; UO-31; SK-MEL-28; UACC-62; EKVX; 786-0; A549; SR; HCT-116; MCF7; NCI/ADR-RES; T47D; MDA-MB-231.
Assay in all cases: DTP human tumour cell line panel, 48 h

For the molecule `O=C1C=C(Nc2ccc(S(=O)(=O)Nc3ncccn3)cc2)c2ccccc2C1=O`, the GI50 is 27.3 µM (inactive) in the experiment with SF-539; 20.2 µM (inactive) with OVCAR-8; 15.8 µM (inactive) in the experiment on LOX IMVI; 18.2 µM (inactive) in the experiment on M14; 18.4 µM (inactive) in the experiment with SK-MEL-2; 32.1 µM (inactive) with CAKI-1. Besides, the GI50 in the experiment on Malme-3M is 23.9 µM (inactive); with UO-31 it was 24 µM (inactive); in the experiment with SK-MEL-28 it was 26 µM (inactive); in the experiment on UACC-62, 17.9 µM (inactive); in the experiment on EKVX it was 24.7 µM (inactive); in the experiment on 786-0, 19.8 µM (inactive). Also, the figures for the GI50 in the experiment on A549, in the experiment with SR and with HCT-116 were 25.3 µM (inactive), 8.53 µM (inactive) and 18.9 µM (inactive), respectively.

With `c1cc2c3c(c1)c1cc4c(cc1c[n+]3CC2)OCO4` [ANHYDROLYCORINIUM CHLORIDE], the GI50 in the experiment on SF-539 was 2.48 µM (inactive); in the experiment on OVCAR-8, 1.33 µM (inactive); with LOX IMVI, 25.5 µM (inactive); in the experiment on MCF7, 6.25 µM (inactive); with SK-MEL-2, 4.26 µM (inactive); with CAKI-1 it was 12.5 µM (inactive). The GI50 was 0.871 µM (active) with Malme-3M; > 127 µM (inactive) in the experiment with UO-31; 4.82 µM (inactive) in the experiment with SK-MEL-28; 5.85 µM (inactive) in the experiment with UACC-62; 3.4 µM (inactive) in the experiment on EKVX; 1.15 µM (inactive) in the experiment on A549. In addition, the results for the GI50 with NCI/ADR-RES and in the experiment on HCT-116 were > 225 µM (inactive) and 2.81 µM (inactive), respectively.

Consider `O=C1NC(=S)NC(=O)C1=CC1CC1`, for which the GI50 in the experiment with SF-539, in the experiment with OVCAR-8, in the experiment on LOX IMVI, with M14, in the experiment on SK-MEL-2 and in the experiment with CAKI-1 was > 100 µM (inactive) throughout. In addition, the GI50 with Malme-3M, in the experiment with UO-31, with SK-MEL-28, in the experiment with UACC-62, with EKVX and with 786-0 was > 100 µM (inactive) throughout. The GI50 with A549, in the experiment with SR and in the experiment on HCT-116 was > 100 µM (inactive) each time.

As to `CC1(O)CC23CC(O)C4(O)C(CC(O)C4(C)C)C(C)(O)C2CCC1C3O` (centres undefined), the GI50 with SF-539, with OVCAR-8, in the experiment on LOX IMVI, with M14, with MCF7 and in the experiment on SK-MEL-2 was > 100 µM (inactive) throughout. The GI50 with CAKI-1, in the experiment on Malme-3M, in the experiment on UO-31, with SK-MEL-28, in the experiment on UACC-62 and in the experiment on EKVX was > 100 µM (inactive) in each case. For the same molecule, the GI50 with 786-0, in the experiment on A549, with SR, in the experiment with NCI/ADR-RES, with HCT-116 and with T47D was > 100 µM (inactive) in each case. Besides, the GI50 with MDA-MB-231 was > 100 µM (inactive).

With `CN1CCC23c4ccccc4NC1C21CCN(C)C3Nc2ccccc21`, the GI50 in the experiment with SF-539 was > 355 µM (inactive); with OVCAR-8, 59.4 µM (inactive); with LOX IMVI, > 375 µM (inactive); with MCF7 it was > 375 µM (inactive); with SK-MEL-2, > 375 µM (inactive); with CAKI-1, 75.5 µM (inactive). The GI50 with Malme-3M is 249 µM (inactive); in the experiment with UO-31, > 301 µM (inactive); with SK-MEL-28, > 375 µM (inactive); in the experiment with UACC-62, > 375 µM (inactive); in the experiment with EKVX, > 294 µM (inactive); in the experiment on A549, > 375 µM (inactive). In addition, the GI50 was > 375 µM (inactive) in the experiment with NCI/ADR-RES and 356 µM (inactive) in the experiment with HCT-116.

As for `O=P(NCCCO)(OCc1ccccc1)N(CCCl)CCCl` (centres undefined), the GI50 with SF-539, in the experiment on OVCAR-8, in the experiment on LOX IMVI, in the experiment with MCF7, in the experiment with SK-MEL-2 and in the experiment on CAKI-1 was > 100 µM (inactive) throughout. Besides, the GI50 in the experiment with Malme-3M, in the experiment with UO-31, in the experiment with SK-MEL-28, with UACC-62, in the experiment on A549 and in the experiment with NCI/ADR-RES was > 100 µM (inactive) each time. Further, in the experiment with HCT-116, the GI50 was > 100 µM (inactive).

In the case of `CCCCCCCCCCCCCCCCCCOCC(O)CO` (centres undefined) [BATILOL], the GI50 in the experiment with SF-539 was > 25 µM (inactive); in the experiment on OVCAR-8, > 25 µM (inactive); in the experiment on LOX IMVI, > 21.9 µM (inactive); in the experiment with MCF7 it was > 25 µM (inactive); with SK-MEL-2, > 24.2 µM (inactive); with CAKI-1 it was 3.57 µM (inactive). Further, the GI50 in the experiment on Malme-3M was > 11.1 µM (inactive); in the experiment on UO-31, 12.5 µM (inactive); with SK-MEL-28 it was > 25 µM (inactive); in the experiment with UACC-62 it was 21.7 µM (inactive); in the experiment on EKVX, > 14.1 µM (inactive); in the experiment with A549, 4.32 µM (inactive). Also, the GI50 with NCI/ADR-RES and in the experiment with HCT-116 was > 25 µM (inactive) in each case.

As for `CCOC(=O)c1ccn2c(c1)c(C#N)c1nc3ccccc3nc12`, the GI50 with SF-539 is > 100 µM (inactive); in the experiment with OVCAR-8, 32.1 µM (inactive); in the experiment on LOX IMVI, 29.2 µM (inactive); in the experiment on M14, > 100 µM (inactive); in the experiment with SK-MEL-2, > 100 µM (inactive); with CAKI-1, 54.5 µM (inactive). The GI50 in the experiment with Malme-3M is 76 µM (inactive); in the experiment on UO-31, 42.4 µM (inactive); in the experiment with SK-MEL-28, > 100 µM (inactive); with UACC-62, 0.908 µM (active); in the experiment with EKVX, 70.6 µM (inactive); in the experiment with 786-0, > 100 µM (inactive). Besides, the GI50 in the experiment with A549 is 50.1 µM (inactive); with SR, 32.6 µM (inactive); in the experiment with HCT-116 it was 46.8 µM (inactive).

For `CCCNC1=C(C(=O)OCC)C(=O)CO1`, the GI50 in the experiment on SF-539, in the experiment with OVCAR-8, with LOX IMVI, with M14, in the experiment on SK-MEL-2 and in the experiment with CAKI-1 was > 100 µM (inactive) in each case. Further, the GI50 in the experiment with Malme-3M, with UO-31, with SK-MEL-28, with UACC-62, in the experiment on EKVX and with 786-0 was > 100 µM (inactive) throughout. Besides, the GI50 in the experiment on A549, with SR and in the experiment on HCT-116 was > 100 µM (inactive) throughout.

`CC(=O)Oc1cc2c(cc1OC(C)=O)OCC(c1ccc(C)cc1)C2` (centres undefined): the GI50 with SF-539 is 19.5 µM (inactive); in the experiment on OVCAR-8 it was 26.8 µM (inactive); with LOX IMVI, 18.7 µM (inactive); with MCF7, 24.9 µM (inactive); in the experiment on SK-MEL-2, 20 µM (inactive); in the experiment with CAKI-1 it was 21.7 µM (inactive). Moreover, the GI50 is 19 µM (inactive) in the experiment with Malme-3M; 20.6 µM (inactive) with UO-31; 20 µM (inactive) with SK-MEL-28; 11.7 µM (inactive) in the experiment on UACC-62; 23.4 µM (inactive) in the experiment with EKVX; 16 µM (inactive) with A549. In addition, the GI50 is 25.5 µM (inactive) in the experiment on NCI/ADR-RES and 20.7 µM (inactive) in the experiment with HCT-116.

Take `Cc1ccccc1NC(=O)c1c(C)oc2c1C(=O)c1ccccc1C2=O`: the GI50 with SF-539 was 25.9 µM (inactive); with OVCAR-8 it was 41.5 µM (inactive); in the experiment with LOX IMVI it was 16 µM (inactive); with M14 it was 20.9 µM (inactive); in the experiment with SK-MEL-2 it was 30.5 µM (inactive); in the experiment on CAKI-1, > 80.7 µM (inactive). Further, the GI50 in the experiment on Malme-3M is 10.2 µM (inactive); with UO-31 it was > 85.3 µM (inactive); in the experiment with SK-MEL-28, 27.5 µM (inactive); in the experiment with UACC-62, 22 µM (inactive); with EKVX, > 72.6 µM (inactive); in the experiment with 786-0 it was 27 µM (inactive). The GI50 in the experiment on A549 was 32.7 µM (inactive); with SR it was 26.1 µM (inactive); in the experiment on HCT-116 it was 32.1 µM (inactive).

`N=C(N)SCc1cccc([N+](=O)[O-])c1`: the GI50 in the experiment on SF-539 was 25.5 µM (inactive); in the experiment with OVCAR-8, 26.2 µM (inactive); in the experiment on LOX IMVI, 31.9 µM (inactive); with MCF7 it was 28.4 µM (inactive); in the experiment with SK-MEL-2, 24 µM (inactive); in the experiment on CAKI-1, 24.4 µM (inactive). In addition, the GI50 in the experiment with Malme-3M was 34.2 µM (inactive); in the experiment on UO-31, 36.8 µM (inactive); with SK-MEL-28, 31.8 µM (inactive); in the experiment with UACC-62 it was 39.5 µM (inactive); in the experiment on EKVX, 42.3 µM (inactive); in the experiment with A549, 39.7 µM (inactive). Further, the figures for the GI50 in the experiment on NCI/ADR-RES and in the experiment with HCT-116 were 21.2 µM (inactive) and 26.5 µM (inactive), respectively.

As for `N#Cc1c(-c2ccc(Cl)cc2)cc(-c2ccc(Nc3ccnc4cc(Cl)ccc34)cc2)nc1N`, the GI50 with SF-539 is 87.7 µM (inactive); in the experiment with OVCAR-8, 40.1 µM (inactive); with M14, > 100 µM (inactive); in the experiment with SK-MEL-2, > 100 µM (inactive); with CAKI-1, > 100 µM (inactive); with Malme-3M, > 100 µM (inactive). The GI50 with UO-31, in the experiment on SK-MEL-28, in the experiment with UACC-62, in the experiment on EKVX, with 786-0 and with A549 was > 100 µM (inactive) throughout. For the same molecule, the GI50 in the experiment with SR is 5.45 µM (inactive); in the experiment with NCI/ADR-RES, > 100 µM (inactive); in the experiment on HCT-116 it was > 100 µM (inactive); with T47D, > 100 µM (inactive); in the experiment on MDA-MB-231, > 100 µM (inactive).
